In patent publication US4444786A, “Carbamate derivatives, insecticidal, miticidal or nematocidal compositions containing the same, and process for preparing the same” (priority 1981, dated 1984):

Legend:
[1] = Test Example 5: acute toxicity by oral administration against male mice; conditions: mouse, in vivo, seventh day, Litchfield-Wilcoxon method
Description: The compound to be tested was evaluated in terms of acute toxicity by oral administration against male mice.

warm-blooded animals = conditions: known, background; cited from earlier work
[2] = tested on: house fly (Musca domestica); test: Test Example 4: local application to house fly, LD50 by Probit method; type: in vivo; conditions: topical, 24 hours
Description: The compound to be tested was dissolved in a predetermined amount of acetone. The solution was diluted to various concentrations and locally applied to house fly (Musca domestica).

[3] = tested on: green rice leafhopper (Nephotettix cincticeps); test: Test Example 2: mortality of female adults of green rice leafhopper on paddy rice, three days; type: in vivo; conditions: 72 h, 3 days; for mortality at 200 ppm: 200 ppm active ingredient; for mortality at 400 ppm: 400 ppm active ingredient; for mortality at 800 ppm: 800 ppm active ingredient
Description: An emulsion of specified concentration was prepared from a 50% wettable powder of the compound to be tested and applied to the leaves of paddy rice (one-month-old seedlings) planted in a pot to fully wet the leaves. After air-drying the emulsion, the pot was covered with a net cage, into which 10 female adults of green rice leafhopper (Nephotettix cincticeps) were released. The compound of each specified concentration was tested on two pots.

[4] = tested on: tobacco cutworm (Spodoptera litura); test: Test Example 1: mortality of third-instar larvae of tobacco cutworm on cabbage, three days; type: in vivo; conditions: 72 h, 3 days; for mortality at 100 ppm: 100 ppm active ingredient; for mortality at 200 ppm: 200 ppm active ingredient; for mortality at 400 ppm: 400 ppm active ingredient
Description: Ten third-instar larvae of tobacco cutworm (Spodoptera litura) were placed on a cabbage (one-month-old seedlings) planted in a pot, and a 50% emulsion of the compound to be tested was diluted to a specified concentration and applied to the leaves of the plant to fully wet them. The test compound of each specified concentration was tested on two pots.

noxious insects = conditions: known, background; cited from earlier work
[5] = tested on: southern root-knot nematode (Meloidogyne incognita); test: Test Example 3: formation of nodules on tomato roots in soil contaminated with nematode larvae, one month; type: in vivo
Source text: Granules containing 10% of the compound to be tested were mixed, in a specified amount, with soil contaminated with larvae of southern root-knot nematode (Meloidogyne incognita), and tomato seedlings were immediately transplanted in the soil. One month later, the roots of the plant were checked for the formation of nodules. Two test areas, 2×2 m^2 each, were used for the compound as applied in each specified amount.

Compound | LD50 at 168 h [1] [mg/kg] | toxicity to warm-blooded animals (warm-blooded animals) | LD50 [2] [mg/kg] | mortality at 200 ppm [3] [%] | mortality at 400 ppm [3] [%] | mortality at 800 ppm [3] [%] | mortality at 100 ppm [4] [%] | insecticidal activity (noxious insects) | mortality at 200 ppm [4] [%] | mortality at 400 ppm [4] [%] | Degree of Formation of Nodules ([5]; granules (10%) applied at 10 kg/10 a) | Degree of Formation of Nodules ([5]; granules (10%) applied at 25 kg/10 a) | Degree of Formation of Nodules ([5]; granules (10%) applied at 50 kg/10 a)
CNC(=O)ON=C(C)SC [Control*, S-methyl N-[(methylcarbamoyl)oxy]thioacetamidate, reference compound] | 16 | high toxicity to warm-blooded animals | 6.8 | 90 | 100 | 100 | 80 | high insecticidal activity |  |  |  |  | 
CCOC(=O)CCN(SN(C)C(=O)ON=C(C)SC)C(C)C [Example 1, S-methyl N-[{N-methyl-N-(N-isopropyl-N-ethoxycarbonylethylaminosulfenyl)carbamoyl}oxy]thioacetamidate] | 150 |  | 16 | 60 | 80 | 100 | 85 |  | 90 | 100 |  |  | 
CCOC(=O)CCN(CCC(=O)OCC)SN(C)C(=O)ON=C(C)SC [Example 2, S-methyl N-[{N-methyl-N-(N,N-bis(ethoxycarbonylethyl)aminosulfenyl)carbamoyl}oxy]thioacetamidate] | 300 |  | 23 | 60 | 95 | 100 | 75 |  | 100 | 100 |  |  | 
CCCCN(CC(=O)OCC)SN(C)C(=O)ON=C(C)SC [Example 3] | 170 |  | 8.5 | 80 | 100 | 100 | 100 |  | 100 | 100 |  |  | 
CCCN(CCC(=O)OCC)SN(C)C(=O)ON=C(C)SC [Example 4] | 150 |  | 11 | 95 | 100 | 100 | 100 |  | 100 | 100 |  |  | 
CCCCN(CCC(=O)OC)SN(C)C(=O)ON=C(C)SC [Example 5] | 150 |  | 5 | 95 | 100 | 100 | 100 |  | 100 | 100 |  |  | 
CCOC(=O)CCN(CC(C)C)SN(C)C(=O)ON=C(C)SC [Example 6] | 170 |  | 7.6 | 80 | 90 | 100 | 70 |  | 95 | 100 |  |  | 
CCOC(=O)CCN(SN(C)C(=O)ON=C(C)SC)C1CCCCC1 [Example 7] | 200 |  | 18.3 | 65 | 100 | 100 | 95 |  | 100 | 100 |  |  | 
CCOC(=O)CCN(Cc1ccccc1)SN(C)C(=O)ON=C(C)SC [Example 8] | 250 |  | 35.2 | 75 | 100 | 100 | 100 |  | 100 | 100 |  |  | 
CCOC(=O)CCN(SN(C)C(=O)ON=C(C)SC)c1ccc(Cl)cc1 [Example 9] | 250 |  | 14 | 70 | 100 | 100 | 50 |  | 70 | 100 |  |  | 
CCOC(=O)CCN(SN(C)C(=O)ON=C(C)SC)c1cccc(C)c1 [Example 10] | 250 |  | 29.5 | 90 | 100 | 100 | 60 |  | 85 | 100 |  |  | 
CCOC(=O)CN(CC(=O)OCC)SN(C)C(=O)ON=C(C)SC [Example 11] | 300 |  | 47.3 | 60 | 80 | 100 | 45 |  | 75 | 100 |  |  | 
CCOC(=O)CN(SN(C)C(=O)ON=C(C)SC)C(=O)OCC [Example 12] | 200 |  | 28.7 | 80 | 100 | 100 | 100 |  | 100 | 100 |  |  | 
CCOC(=O)CN(SN(C)C(=O)ON=C(C)SC)C(=O)CC [Example 13] | 200 |  | 14.4 | 75 | 100 | 100 | 75 |  | 90 | 100 |  |  | 
CCOC(=O)CN(SN(C)C(=O)ON=C(C)SC)S(=O)(=O)c1ccc(C)cc1 [Example 14] | 250 |  | 33.3 | 80 | 100 | 100 | 60 |  | 80 | 100 |  |  | 
CCCCOC(=O)CCN(SN(C)C(=O)ON=C(C)SC)C(C)C [Example 15] | 280 |  | 21.3 | 80 | 100 | 100 | 75 |  | 95 | 100 |  |  | 
CCCCCCN(CCC(=O)OCC)SN(C)C(=O)ON=C(C)SC [Example 16] | 300 |  | 32.5 | 75 | 100 | 100 | 70 |  | 80 | 100 |  |  | 
CCCCC(CC)COC(=O)CCN(SN(C)C(=O)ON=C(C)SC)C(C)C (stereo not drawn) [Example 17] | 300 |  | 42.4 | 75 | 90 | 100 | 50 |  | 70 | 100 |  |  | 
CCCCCCCCN(CCC(=O)OCC)SN(C)C(=O)ON=C(C)SC [Example 18] | 270 |  | 35.6 | 75 | 90 | 100 | 60 |  | 75 | 100 |  |  | 
CCOC(=O)CCN(SN(C)C(=O)ON=C(C)SC)c1ccc(OC)cc1 [Example 19] | 250 |  | 20.1 | 80 | 100 | 100 | 75 |  | 80 | 100 |  |  | 
CCOC(=O)CCN(Cc1ccc(Cl)cc1)SN(C)C(=O)ON=C(C)SC [Example 20] | 250 |  | 18.9 | 80 | 100 | 100 | 75 |  | 80 | 100 |  |  | 
Bis(2-chloro-1-methylethyl)ethane |  |  |  |  |  |  |  |  |  |  | 4 (75 to 100%) | 4 (75 to 100%) | 2 (25 to 49%)
